According to patent publication US20070185122A1, “Use of efletirizine for treating persistent allergic rhinitis” (priority 2003, published 2007):

Experiments:
histamine H1-receptor = histamine H1-receptor (Homo sapiens, UniProt P35367); test: in vitro affinity and selectivity for H1-receptors; format: binding
[1] = tested on: persistent allergic rhinitis; test: clinical study of efletirizine dihydrochloride in persistent allergic rhinitis (T5SS, RQLQ, SF-36), placebo-controlled; format: in vivo, adult patients; details: patients with persistent allergic rhinitis
From the text: A study relative to the clinical effect of efletirizine dihydrochloride is planed to establish on the intention to treat (ITT population) whether an approximately 6 month efletirizine treatment can improve the quality of life and clinical symptoms from adult patients suffering from persistent allergic rhinitis, when compared to placebo.
Secondary parameters of efficacy include different durations of treatment, different symptoms, different quality of life questionnaires, the incidence of co-morbidities suspected to be linked to allergic rhinitis and pharmaco-economic variables. The safety of this long-term treatment with efletirizine is also evaluated.
The target population of this study consists of adults aged more than 18 years suffering from persistent allergic rhinitis [WHO Initiative on Allergic Rhinitis and its Impact on Asthma (ARIA), 2000, pages S147-S149]. To be enrolled, the subjects need to have sufficient rhinitis symptoms during the selection period. Excluded are patients with ENT (Ear-Nose-Throat) or eye infection preceding initial visit. […]
The severity of clinical symptoms is rated by the T5SS (sneezing, rhinorrhea, nasal pruritus, ocular pruritus and nasal congestion) evaluated each by a score from 0 to 3 each day. The impact on health related quality of life is measured using the Rhinoconjunctivitis Quality of Life Questionnaire (RQLQ, SF36) (E. JUNIPER and G. H. GUYATT, Development and testing of a new measure of health status for clinical trials in rhinoconjunctivitis, Clinical and Experimental Allergy 1991; 21:77-83; E. JUNIPER, Measuring Health Related Quality of Life in rhinitis, J. Allergy Clin. Immunol. 1997; 99:S742-9). […]
At each of the visits, diary book entries (T5SS, RQLQ, SF-36, indirect cost pharmaco-economic parameters, concomitant medication, outpatient consultations and adverse events) are verified and transferred into the Clinical Record Form and direct cost pharmaco-economic parameters will be recorded. […]
Adverse events are recorded by the patients on diary cards and discussed with the investigator at each visit. […]

Chain of histamine H1-receptor (P35367 whole entry, species assumed): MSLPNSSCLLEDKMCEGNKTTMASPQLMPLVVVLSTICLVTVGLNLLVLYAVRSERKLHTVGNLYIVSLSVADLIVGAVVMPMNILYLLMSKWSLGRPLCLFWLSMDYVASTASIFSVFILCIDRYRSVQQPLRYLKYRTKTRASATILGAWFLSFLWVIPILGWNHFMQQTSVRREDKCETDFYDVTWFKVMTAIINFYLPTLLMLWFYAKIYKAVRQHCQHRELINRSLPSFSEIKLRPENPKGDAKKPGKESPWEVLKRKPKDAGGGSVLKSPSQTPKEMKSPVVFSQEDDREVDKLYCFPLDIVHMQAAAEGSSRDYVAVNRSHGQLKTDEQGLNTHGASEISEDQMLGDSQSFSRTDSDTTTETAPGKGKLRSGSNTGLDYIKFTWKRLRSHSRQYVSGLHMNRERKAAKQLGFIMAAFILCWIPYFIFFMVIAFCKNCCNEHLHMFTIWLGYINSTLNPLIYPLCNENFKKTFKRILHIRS

Row | SMILES | affinity for H1-receptors (histamine H1-receptor) | duration of effect on persistent rhinitis [1] | duration of effect on quality of life [1] | effect on nasal congestion [1]
1 | O=C(O)COCCN1CCN(C(c2ccc(F)cc2)c2ccc(F)cc2)CC1 [Efletirizine, 2-[2-[4-[Bis(4-fluorophenyl)methyl]-1-piperazinyl]ethoxy]acetic acid] | high affinity |  |  | 
2 | Cl.Cl.O=C(O)COCCN1CCN(C(c2ccc(F)cc2)c2ccc(F)cc2)CC1 [efletirizine dihydrochloride] |  | more than 4 weeks | more than 4 weeks | has an effect on nasal congestion
